Measured values taken from publication PMC5067704 (ACS Infectious Diseases, 2016).
≈ marks a conversion by molar mass, not a printed value. Like-named read-outs stand apart in the source and are kept apart here.

Tests used:
[1] = Cytotoxicity assay (resazurin), HepG2; format: cell-based; conditions: human, HepG2 cells, 20 h incubation, highest concentration 60 μM
E. coli MB4827 = test: MIC determination, E. coli MB4827; format: cell-based; conditions: Escherichia coli, n = 4
E. coli DC2 mutant = test: microbe, parasite or virus in culture; format: cell-based; conditions: Escherichia coli, DC2MUTANT, read-out: MIC E. coli DC2 mutant
E. coli lpxC mutant = test: microbe, parasite or virus in culture; format: cell-based; conditions: Escherichia coli, read-out: MIC E. coli lpxC mutant
S. aureus ATCC 25923 = test: MIC determination, S. aureus ATCC 25923; format: cell-based; conditions: Staphylococcus aureus
E. coli ATCC 25922 = test: MIC determination, E. coli ATCC 25922 (wild type); format: cell-based, Escherichia coli; conditions: for MIC: Escherichia coli
E. coli tolC mutant = test: microbe, parasite or virus in culture; format: cell-based, Escherichia coli; conditions: for MIC: Escherichia coli, read-out: MIC E. coli tolC mutant
E. coli clin isol [2] = test: MIC determination, E. coli clinical isolate (first column); format: cell-based; conditions: Escherichia coli, n = 4
[3] = molecular target: T1, E. coli dihydrofolate reductase (eDHFR) (Escherichia coli, UniProt P0ABQ4); test: DHFR enzyme inhibition assay; format: biochemical
T1 construct: host or cells: cell-free (PURExpress in vitro protein synthesis)
T1 sequence (P0ABQ4 whole entry): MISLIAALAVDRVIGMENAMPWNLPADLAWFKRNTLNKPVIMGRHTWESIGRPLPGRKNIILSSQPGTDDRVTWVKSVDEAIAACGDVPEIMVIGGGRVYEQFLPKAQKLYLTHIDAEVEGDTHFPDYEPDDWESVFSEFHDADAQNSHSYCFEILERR

[4] = Cytotoxicity assay (resazurin), HEK 293; format: cell-based; conditions: human, HEK293 cells, 20 h incubation, highest concentration 60 μM
E. coli clin isol [5] = test: MIC determination, E. coli clinical isolate (second column); format: cell-based; conditions: Escherichia coli, n = 4
E. coli lpxC/tolC mutant = test: microbe, parasite or virus in culture; format: cell-based; conditions: Escherichia coli, read-out: MIC E. coli lpxC/tolC mutant
[6] = system: membrane-impaired mutant E. coli (LpxC and DC2); test: microbe, parasite or virus in culture; conditions: Escherichia coli, read-out: MIC membrane-impaired mutant E. coli (LpxC and DC2)
E. coli (ATCC 25922) = test: LC-MS/MS bacterial accumulation assay, wild type E. coli; format: cell-based, Escherichia coli; conditions: example of the calculation; strain and dose not stated
[7] = ATCC25923, n = 4, read-out: MIC S. aureus ATCC 25923
[8] = ATCC25922, wild type, n = 4, read-out: MIC E. coli ATCC 25922

SMILES	CC50 at 20 h [1] [µM]	MIC (E. coli MB4827) [µg/mL]	MIC (E. coli DC2 mutant) [µg/mL]	MIC (E. coli lpxC mutant) [µg/mL]	MIC (S. aureus ATCC 25923; [7]) [µg/mL]	MIC (E. coli ATCC 25922; [8]) [µg/mL]	MIC (E. coli tolC mutant) [µg/mL]	MIC (E. coli clin isol [2]) [µg/mL]	IC50 [3] [nM]	CC50 at 20 h [4] [µM]	MIC (E. coli clin isol [5]) [µg/mL]	MIC (E. coli lpxC/tolC mutant) [µg/mL]	MIC [6] [µg/mL]	measured concentration using LC-MS/MS (lysate) (E. coli (ATCC 25922)) [µM]	MIC (S. aureus ATCC 25923; ATCC25923, molar equivalent of the μg/mL value, read-out: MIC S. aureus ATCC 25923, in μM) [µM]	MIC (E. coli ATCC 25922; ATCC25922, molar equivalent of the μg/mL value, read-out: MIC E. coli ATCC 25922, in μM) [µM]	MIC E. coli ΔtolC (E. coli tolC mutant; molar equivalent of the μg/mL value) [µM]	antimicrobial activity, fold less active than TMP (E. coli ATCC 25922; E. coli strains of Table 1)
COc1cc(Cc2cnc(N)nc2N)cc(OC)c1OCCCCn1cc(CNS(=O)(=O)c2cccc3c(N(C)C)cccc23)nn1 [compound 14b]	> 60	> 64	> 64	> 64	64	> 64	0.5 (≈ 0.756 µM)	> 64	226	59	> 64	1 (≈ 1.51 µM)	–	–	–	–	–	–
COc1cc(Cc2cnc(N)nc2N)cc(OC)c1OCCCCCN=[N+]=[N-] [8c]	> 60	32 (≈ 82.6 µM)	8 (≈ 20.6 µM)	8 (≈ 20.6 µM)	4	32	0.125 (≈ 0.323 µM)	16 (≈ 41.3 µM)	140	> 60	16 (≈ 41.3 µM)	0.25 (≈ 0.645 µM)	–	–	–	–	–	–
COc1cc(Cc2cnc(N)nc2N)cc(OC)c1OCCCCCn1cc(CNC(=O)Cc2cc(=O)oc3cc(N(C)C)ccc23)nn1 [compound 13c]	> 60	> 64	> 64	> 64	> 64	> 64	1 (≈ 1.49 µM)	> 64	668	> 60	> 64	1 (≈ 1.49 µM)	–	–	–	–	–	–
COc1cc(Cc2cnc(N)nc2N)cc(OC)c1OCCCn1cc(CNS(=O)(=O)c2cccc3c(N(C)C)cccc23)nn1 [compound 14a]	> 60	> 64	> 64	> 64	> 64	> 64	0.5 (≈ 0.772 µM)	> 64	162	59	> 64	0.5 (≈ 0.772 µM)	–	–	–	–	–	–
COc1cc(Cc2cnc(N)nc2N)cc(OC)c1OC [TMP, trimethoprim, reference compound]	–	1 (≈ 3.44 µM)	0.25 (≈ 0.861 µM)	–	1	0.5	0.125 (≈ 0.431 µM)	0.5 (≈ 1.72 µM)	–	–	0.5 (≈ 1.72 µM)	0.125 (≈ 0.431 µM)	0.25 to 0.5 (≈ 0.861 to 1.72 µM)	–	–	–	–	–
COc1cc(Cc2cnc(N)nc2N)cc(OC)c1OCCCCCn1cc(CNS(=O)(=O)c2cccc3c(N(C)C)cccc23)nn1 [compound 14c]	51	> 64	> 64	> 64	32	> 64	0.25 (≈ 0.37 µM)	> 64	509	32	> 64	0.25 (≈ 0.37 µM)	–	–	–	–	–	–
COc1cc(Cc2cnc(N)nc2N)cc(OC)c1OCCCCn1cc(CNc2ccc([N+](=O)[O-])c3nonc23)nn1 [compound 12b]	> 60	> 64	> 64	> 64	–	–	0.25 (≈ 0.423 µM)	> 64	148	> 60	> 64	0.5 (≈ 0.845 µM)	–	7.122	> 94	24	0.37	–
COc1cc(Cc2cnc(N)nc2N)cc(OC)c1OCCCn1cc(CNc2ccc([N+](=O)[O-])c3nonc23)nn1 [12a]	> 60	> 64	> 64	> 64	64	> 64	2 (≈ 3.46 µM)	> 64	254	> 60	> 64	1 (≈ 1.73 µM)	–	–	–	–	–	–
COc1cc(Cc2cnc(N)nc2N)cc(OC)c1OCCCCn1cc(CNC(=O)Cc2cc(=O)oc3cc(N(C)C)ccc23)nn1 [compound 13b]	> 60	> 64	> 64	> 64	> 64	> 64	2 (≈ 3.04 µM)	> 64	162	> 60	> 64	2 (≈ 3.04 µM)	–	–	–	–	–	–
COc1cc(Cc2cnc(N)nc2N)cc(OC)c1OCCCn1cc(CNC(=O)Cc2cc(=O)oc3cc(N(C)C)ccc23)nn1 [13a]	> 60	> 64	> 64	> 64	> 64	> 64	8 (≈ 12.4 µM)	> 64	83	> 60	> 64	8 (≈ 12.4 µM)	–	–	–	–	–	–
COc1cc(Cc2cnc(N)nc2N)cc(OC)c1OCCCCCn1cc(CNc2ccc([N+](=O)[O-])c3nonc23)nn1 [compound 12c]	> 60	> 64	> 64	> 64	8	> 64	0.5 (≈ 0.826 µM)	> 64	208	46	> 64	0.5 (≈ 0.826 µM)	–	–	–	–	–	–
COc1cc(Cc2cnc(N)nc2N)cc(OC)c1OCCCCN=[N+]=[N-] [8b]	> 60	16 (≈ 42.8 µM)	8 (≈ 21.4 µM)	–	4	32	0.125 (≈ 0.335 µM)	8 (≈ 21.4 µM)	97	> 60	16 (≈ 42.8 µM)	0.25 (≈ 0.669 µM)	–	–	–	–	–	–
COc1cc(Cc2cnc(N)nc2N)cc(OC)c1OCCCN=[N+]=[N-] [8a]	> 60	8 (≈ 22.3 µM)	4 (≈ 11.1 µM)	–	4	8	0.25 (≈ 0.696 µM)	8 (≈ 22.3 µM)	66	> 60	4 (≈ 11.1 µM)	0.25 (≈ 0.696 µM)	–	–	–	–	–	8–16 fold
